# Experimental data from article PMC5614982, “Impact of Gastric H^+/K^+-ATPase rs2733743 on the Intragastric pH-Values of Dexlansoprazole Injection in Chinese Subjects” (Frontiers in Pharmacology, 2017).
# Marks after values point to notes of the source that are not given here.
# Test system: intragastric pH
# Assay: 24-h intragastric pH monitoring after single intravenous dexlansoprazole in healthy Chinese subjects
# Type: in vivo, human
# Conditions: for AUCτ 1−τ 2pH−t: second AUC line
# Protocol: Dexlansoprazole injection (30 mg per vial) used in the PK and PD study was manufactured by Nanjing Yoko Pharma Co., Ltd. (Nanjing, China). Subjects received an intravenous infusion of 20 or 30 mg dexlansoprazole injection in sterile saline solution (100 mL/h, 60 min). The study drug was administrated with an infusing pump (SA213, Lifepum, Beijing, China) and given through an intravenous catheter in the antecubital vein opposite to the one from which blood samples were taken.
# An ambulatory pH recorder (Orion II, MMS, USA) with a disposable pH catheter (VersaFlex, MMS, USA) was used to monitor intragastric pH. The electrode was placed in water for at least 10 min and then calibrated using standard buffer solutions (pH 1.07 and 7.01) before intubation. Both calibration and intubation processes were conducted under the guidance of MMS Virtual Instructor Program. The catheter, trans nasally placed 10 cm under the lower esophageal sphincter, was identified by a sharp decrease in pH (Wang et al., [2010], [2011]). Subjects were intubated on baseline and the day of dosing at about 7:30 a.m., and the intragastric pH data were recorded continuously for 24 h from 8:00 a.m. Intragastric pH was sampled every second, and the data were stored in a MMS Database program (MMS, USA). The PD parameters including Median (pH), Mean (pH), TpH≥3 (%), TpH≥4 (%), TpH≥6 (%), TpH≥6, and AUC^pH−t were analyzed by the MMS Database program.
# Median (pH) and mean (pH) were well-investigated in most studies, and the percentage time of pH ≥ 4 (or pH ≥ 4 holding time ratio) was the benchmark for predicting clinical efficacy of PPIs in treating acid-related diseases (Metz et al., [2009]). Novel parameter TpH≥6 (time to first gastric pH ≥ 6, min) and AUCτ 1-τ 2pH-t (area under pH-time curve from τ1 to τ2, pH·s) were defined to evaluate the velocity and extent of pharmacodynamics with more accuracy. All parameters were calculated and compared according to time periods of 0–24, 0–4, 4–10, 10–14, and 14–24 h post dosing.
# The parameter AUCτ 1-τ 2pH-t was calculated as follows:
# Where t represented the time duration measured by seconds, AUCτ 1-τ 210-t was the area between the pH line = 10 and the pH-time curve, which was generated by the MMS software.
# Baseline-adjusted PD parameters were calculated as follows: for example, ΔAUC^pH−t = AUC^pH−t − AUC^pH−tbaseline, ΔMean (pH) = Mean (pH) − Mean (pH)^baseline, and ΔMedian (pH) = Median (pH) − Median (pH)^baseline.
# [1] = 30 mg iv, H+/K+-ATPase Het (n = 10), 0–4 h
# [2] = 30 mg iv, H+/K+-ATPase Het (n = 10), 0–24 h
# [3] = 30 mg iv, H+/K+-ATPase Het (n = 10), 14–24 h
# [4] = 30 mg iv, H+/K+-ATPase Hom (n = 10), 0–4 h
# [5] = 30 mg iv, H+/K+-ATPase Hom (n = 10), 0–24 h
# [6] = 30 mg iv, H+/K+-ATPase Hom (n = 10), 14–24 h
# [7] = 30 mg iv, H+/K+-ATPase WT (n = 8), 0–4 h
# [8] = 30 mg iv, H+/K+-ATPase WT (n = 8), 0–24 h
# [9] = 30 mg iv, H+/K+-ATPase WT (n = 8), 14–24 h
structure (smiles),measurement,setting,value
Cc1c(OCC(F)(F)F)ccnc1C[S@@+]([O-])c1nc2ccccc2[nH]1 [dexlansoprazole],ΔMedian (pH),[1],3.3 ± 2.0^c pH
same,ΔTpH≥3(%),[1],52.6 ± 22.2%
same,ΔTpH≥4 (%),[1],51.0 ± 20.6%
same,ΔTpH≥6(%),[1],46.0 ± 33.2%
same,Mean (pH),[2],5.9 ± 1.5 pH
same,Median (pH),[2],6.0 ± 1.9 pH
same,TpH≥3(%),[2],81.0 ± 20.9%
same,TpH≥4(%),[2],74.9 ± 25.7%
same,TpH≥6(%),[2],59.2 ± 25.9%
same,ΔMean (pH),[2],3.0 ± 1.0^c pH
same,ΔMedian (pH),[2],4.0 ± 1.6 pH
same,ΔTpH≥3(%),[2],51.8 ± 14.2^c %
same,ΔTpH≥4 (%),[2],54.9 ± 19.1^c %
same,ΔTpH≥6(%),[2],47.2 ± 17.0^c %
same,Mean (pH),[3],5.1 ± 1.9 pH
same,Median (pH),[3],4.9 ± 2.3 pH
same,TpH≥3(%),[3],72.0 ± 33.7%
same,TpH≥4(%),[3],63.2 ± 38.0%
same,TpH≥6(%),[3],41.0 ± 26.2%
same,ΔMean (pH),[3],1.9 ± 0.9^c pH
same,ΔMedian (pH),[3],2.1 ± 1.9^c pH
same,ΔTpH≥3(%),[3],44.1 ± 21.3^c %
same,ΔTpH≥4 (%),[3],37.7 ± 20.5^c %
same,ΔTpH≥6(%),[3],17.4 ± 11.2^c %
same,Mean (pH),[4],6.2 ± 0.8 pH
same,Median (pH),[4],7.5 ± 0.6 pH
same,TpH≥3(%),[4],78.0 ± 7.4%
same,TpH≥4(%),[4],73.1 ± 12.6%
same,TpH≥6(%),[4],70.3 ± 14.7%
same,ΔMean (pH),[4],4.2 ± 0.3^a pH
same,ΔMedian (pH),[4],"5.8 ± 0.3^a^,^b pH"
same,ΔTpH≥3(%),[4],68.4 ± 8.6%
same,ΔTpH≥4 (%),[4],67.5 ± 8.7%
same,ΔTpH≥6(%),[4],67.9 ± 12.4%
same,Mean (pH),[5],7.0 ± 0.6 pH
same,Median (pH),[5],7.5 ± 0.6 pH
same,TpH≥3(%),[5],95.7 ± 1.3%
same,TpH≥4(%),[5],91.7 ± 4.9%
same,TpH≥6(%),[5],80.2 ± 7.5%
same,ΔMean (pH),[5],"4.5 ± 0.7^a^,^b pH"
same,ΔMedian (pH),[5],5.5 ± 0.5^a pH
same,ΔTpH≥3(%),[5],"75.4 ± 7.6^a^,^b %"
same,ΔTpH≥4 (%),[5],79.9 ± 6.6^b %
same,ΔTpH≥6(%),[5],"75.3 ± 9.3^a^,^b %"
same,Mean (pH),[6],6.6 ± 0.8 pH
same,Median (pH),[6],6.7 ± 1.1 pH
same,TpH≥3(%),[6],98.5 ± 1.8%
same,TpH≥4(%),[6],91.0 ± 10.4%
same,TpH≥6(%),[6],66.9 ± 17.6%
same,ΔMean (pH),[6],4.0 ± 1.1^b pH
same,ΔMedian (pH),[6],4.7 ± 1.0^b pH
same,ΔTpH≥3(%),[6],"84.0 ± 9.1^a^,^b %"
same,ΔTpH≥4 (%),[6],"80.9 ± 11.2^a^,^b %"
same,ΔTpH≥6(%),[6],"59.2 ± 21.4^a^,^b %"
same,Mean (pH),[7],5.1 ± 1.4 pH
same,Median (pH),[7],5.6 ± 2.0 pH
same,TpH≥3(%),[7],69.5 ± 24.9%
same,TpH≥4(%),[7],63.3 ± 26.8%
same,TpH≥6(%),[7],46.8 ± 27.3%
same,ΔMean (pH),[7],2.9 ± 1.0^c pH
same,ΔMedian (pH),[7],3.5 ± 1.7^c pH
same,ΔTpH≥3(%),[7],54.0 ± 28.3%
same,ΔTpH≥4 (%),[7],53.6 ± 23.3%
same,ΔTpH≥6(%),[7],42.6 ± 23.6%
same,Mean (pH),[8],5.7 ± 0.9 pH
same,Median (pH),[8],6.0 ± 1.1 pH
same,TpH≥3(%),[8],81.1 ± 14.2%
same,TpH≥4(%),[8],75.6 ± 17.1%
same,TpH≥6(%),[8],57.1 ± 18.8%
same,ΔMean (pH),[8],3.0 ± 1.0^c pH
same,ΔMedian (pH),[8],3.7 ± 1.0^c pH
same,ΔTpH≥3(%),[8],52.6 ± 21.0^c %
same,ΔTpH≥4 (%),[8],57.3 ± 22.3%
same,ΔTpH≥6(%),[8],51.2 ± 17.1^c %
same,Mean (pH),[9],5.1 ± 1.3 pH
same,Median (pH),[9],4.7 ± 1.7 pH
same,TpH≥3(%),[9],70.7 ± 27.8%
same,TpH≥4(%),[9],62.5 ± 31.5%
same,TpH≥6(%),[9],43.7 ± 25.6%
same,ΔMean (pH),[9],2.6 ± 1.3 pH
same,ΔMedian (pH),[9],2.8 ± 1.7 pH
same,ΔTpH≥3(%),[9],56.6 ± 27.3^c %
same,ΔTpH≥4 (%),[9],50.7 ± 30.9^c %
same,ΔTpH≥6(%),[9],33.3 ± 25.5^c %
same,AUCτ 1−τ 2pH−t,"20 mg iv, 0–4 h",501 ± 268 pH·h
same,AUCτ 1−τ 2pH−t,"20 mg iv, 10–14 h",784 ± 346 pH·h
same,AUCτ 1−τ 2pH−t,"20 mg iv, 14–24 h",942 ± 632 pH·h
same,AUCτ 1−τ 2pH−t,"30 mg iv, 0–4 h",793 ± 268 pH·h
same,AUCτ 1−τ 2pH−t,"30 mg iv, CYP2C19 EM (n = 11), 0–4 h",762 ± 250 pH·h
same,AUCτ 1−τ 2pH−t,"30 mg iv, CYP2C19 EMs, H+/K+-ATPase Het (n = 8), 0–4 h",531 ± 194^c pH·h
same,AUCτ 1−τ 2pH−t,"30 mg iv, CYP2C19 EMs, H+/K+-ATPase Het (n = 8), 14–24 h",755 ± 198^c pH·h
same,AUCτ 1−τ 2pH−t,"30 mg iv, CYP2C19 EMs, H+/K+-ATPase WT (n = 6), 0–4 h",817 ± 157 pH·h
same,AUCτ 1−τ 2pH−t,"30 mg iv, CYP2C19 EMs, H+/K+-ATPase WT (n = 6), 14–24 h",968 ± 553^c pH·h
same,AUCτ 1−τ 2pH−t,"30 mg iv, CYP2C19 IM (n = 10), 0–4 h",789 ± 405 pH·h
same,AUCτ 1−τ 2pH−t,"30 mg iv, CYP2C19 PM (n = 7), 0–4 h",837 ± 235 pH·h
same,AUCτ 1−τ 2pH−t,[1],727 ± 297 pH·h
same,AUCτ 1−τ 2pH−t,[7],681 ± 248^c pH·h
